Source: patent publication US20260347364A1, “PYRAZOLO[4,3-F]QUINAZOLINE DERIVATIVES AS MODULATORS OF G12D MUTANT KRAS USEFUL FOR THE TREATMENT OF CANCER” (JAZZ PHARMACEUTICALS IRELAND LTD., priority 2023, published 2026)

Assays:
KRAS WT = target: T1, KRAS WT (Homo sapiens, UniProt P01116); assay: HTRF nucleotide exchange assay, KRAS WT; assay type: biochemical; conditions: HTRF nucleotide exchange assay (NEA), class symbols
T1 construct: aa1-188 KRAS WT

KRAS G12D = target: T2, KRAS G12D (Homo sapiens, UniProt P01116, G12D); assay: HTRF nucleotide exchange assay, KRAS G12D; assay type: biochemical; conditions: class symbols; for IC50: HTRF nucleotide exchange assay (NEA)
T2 construct: aa1-188 KRAS WT, HRAS WT, NRAS WT, or KRAS containing the G12D

IC50 (KRAS WT) [nM]	IC50 (KRAS G12D) [nM]	KRAS^G12D NEA (KRAS G12D)	SMILES
≤ 10	≤ 10		CCc1c(F)ccc2cc(O)cc(-c3c(C)c4nc(OCC5(C)CC(O)CN5)nc(N5CCOCC(C)(O)C5)c4c4cn(C)nc34)c12 (stereo not shown) [Example 145, 4-[4-(8-ethyl-7-fluoro-3-hydroxy-1-naphthyl)-7-[(4-hydroxy-2-methyl-pyrrolidin-2-yl)methoxy]-2,5-dimethyl-pyrazolo[4,3-f]quinazolin-9-yl]-6-methyl-1,4-oxazepan-6-ol]
≤ 10	≤ 10		CCc1c(F)ccc2cc(O)cc(-c3c(C)c4nc(OC[C@@]56CCCN5C[C@H](F)C6)nc(N5CCCn6nc(C(=O)N(C)C)nc6C5)c4c4cn(C)nc34)c12 (racemic) [Example 198, 8-[4-(8-ethyl-7-fluoro-3-hydroxy-1-naphthyl)-2,5-dimethyl-7-[[rac-(2R,8S)-2-fluoro-1,2,3,5,6,7-hexahydropyrrolizin-8-yl]methoxy]pyrazolo[4,3-f]quinazolin-9-yl]-N,N-dimethyl-5,6,7,9-tetrahydro-[1,2,4]triazolo[1,5-a][1,4]diazepine-2-carboxamide]
100 to 10000	≤ 10		CCc1c(F)ccc2cc(O)cc(-c3cc4nc(OC[C@@]56CCCN5C[C@H](F)C6)nc(N5CCCC6(COC6)C5)c4c4cn(C)nc34)c12 [Example 201, 5-ethyl-6-fluoro-4-[2-methyl-9-(2-oxa-8-azaspiro[3.5]nonan-8-yl)-7-[[(2R,8S)-2-fluoro-1,2,3,5,6,7-hexahydropyrrolizin-8-yl]methoxy]pyrazolo[4,3-f]quinazolin-4-yl]naphthalen-2-ol]
≤ 10	≤ 10		CCc1c(F)ccc2cc(O)cc(-c3c(C)c4nc(OCC5(CN(C)C)CC5)nc(N5CCC[C@@](C)(O)C5)c4c4cn(C)nc34)c12 [Example 204, (3R)-1-[7-[[1-[(dimethylamino)methyl]cyclopropyl]methoxy]-4-(8-ethyl-7-fluoro-3-hydroxy-1-naphthyl)-2,5-dimethyl-pyrazolo[4,3-f]quinazolin-9-yl]-3-methyl-piperidin-3-ol]

More lines, now with the values behind:

SMILES	IC50 (KRAS WT) [nM]	IC50 (KRAS G12D) [nM]	KRAS^G12D NEA (KRAS G12D)
CCc1c(F)ccc2cc(O)cc(-c3cc4nc(OC[C@@]56CCCN5C[C@H](F)C6)nc(N5CCCOCC5)c4c4cn(C5CC5)nc34)c12 [Example 44, 4-[2-cyclopropyl-9-(1,4-oxazepan-4-yl)-7-[[(2R,8S)-2-fluoro-1,2,3,5,6,7-hexahydropyrrolizin-8-yl]methoxy]pyrazolo[4,3-f]quinazolin-4-yl]-5-ethyl-6-fluoro-naphthalen-2-ol]	10 to 100	10 to 100	
CCc1c(F)ccc2cc(O)cc(-c3cc4nc(OC[C@@]56CCCN5C[C@H](F)C6)nc(N5CCC6(CC6)C(O)C5)c4c4cn(C)nc34)c12 (stereo partly drawn) [Example 130, 6-[4-(8-ethyl-7-fluoro-3-hydroxy-1-naphthyl)-2-methyl-7-[[(2R,8S)-2-fluoro-1,2,3,5,6,7-hexahydropyrrolizin-8-yl]methoxy]pyrazolo[4,3-f]quinazolin-9-yl]-6-azaspiro[2.5]octan-8-ol]	100 to 10000		D (<49% inhibition at 10 μM)
CCc1c(F)ccc2cc(O)cc(-c3c(F)c4nc(OC[C@@]56CCCN5C[C@H](F)C6)cc(N5CCCOCC5)c4c4cn(C)nc34)c12 [Example 45, 5-ethyl-6-fluoro-4-[5-fluoro-2-methyl-9-(1,4-oxazepan-4-yl)-7-[[(2R,8S)-2-fluoro-1,2,3,5,6,7-hexahydropyrrolizin-8-yl]methoxy]pyrazolo[4,3-f]quinolin-4-yl]naphthalen-2-ol]	100 to 10000	100 to 10000	
CCc1c(F)ccc2cc(O)cc(-c3c(C)c4nc(OCC5(C)CC(OC)CN5)nc(N5CCOCC(C)(O)C5)c4c4cn(C)nc34)c12 (stereo not shown) [Example 137, 4-[4-(8-ethyl-7-fluoro-3-hydroxy-1-naphthyl)-7-[(4-methoxy-2-methyl-pyrrolidin-2-yl)methoxy]-2,5-dimethyl-pyrazolo[4,3-f]quinazolin-9-yl]-6-methyl-1,4-oxazepan-6-ol]	≤ 10	≤ 10	
